The record followed here is patent publication EP0332387B1, “Triazole derivatives, their preparation and their use as fungicides” (Sankyo Company Limited, priority 1988, dated 1989).

By ED50 is commonly meant the dose that gives a 50% effect, or the effect in half of the subjects.

Assay type in all cases: in vivo
Test [1] concerns Rhizoctonia solani. In words: Preventive activity against sheath blight of rice plants by submerged application (Experiment 4). To be noted: rice seedlings (variety Nihonbare), applied to the water in the pots, 100 g per 10 ares, inoculated after 7 days, 5 days; height of the lesions. From the text: Rice seedlings (variety Nihonbare) at the 4 - 5 leaf stage grown in pots were flooded to a depth of 1 cm with water. The test compound was then applied to the water in the pots in an amount corresponding to 100 g per 10 ares. After keeping the seedlings in a greenhouse for 7 days, the water was drained from the pots and the seedlings were inoculated with the fungus, Rhizoctonia solani, by placing 4 - 5 oat grains on which the fungus had previously been cultured around the base of each seedling. The seedlings were then kept in a moist chamber for 5 days at 25 - 27 °C. The disease controlling index was given on the basis of the height of the lesions formed on the rice seedlings.
Except for Table 14F, the compounds tested have the formula (1-1), in which Ar represents the group shown at the beginning of each part of the Table and R^1, R^2, X and Y are as defined in the Table.
(§1) The disease controlling index shown in the foregoing Tables 11 to 19 is indicated by the following codes: • 5--no disease (complete control) • 4--disease rate is less than 10% of the untreated plant • 3--disease rate is 10% - 30% of the untreated plant • 2--disease rate is 30% - 50% of the untreated plant • 1--disease rate is 50% - 70% of the untreated plant • 0--disease rate is almost same as the untreated plant.

Test [2] concerns Erysiphe graminis f.sp. hordei. The test can be described thus: Curative activity against powdery mildew of barley (Experiment 7). The settings on record: barley seedlings (variety Sekishinriki), sprayed one day after inoculation at 3 ppm (30 ml/3 pots), further 10 days; diseased area on the first leaf. The method, then: Barley seedlings (variety […]) at the first leaf stage were inoculated with conidia of Erysiphe graminis f.sp. hordei and kept in a greenhouse at 15 - 20°C. After one day, the seedlings were sprayed with an aqueous suspension of the test compound at a concentration of 3 ppm (30 ml/3 pots), and they continued to be kept in the greenhouse at that temperature for a further 10 days. The disease controlling index was given on the basis of the diseased area on the first leaf.

For a further test, the system named is Puccinia recondita. The test can be described thus: Curative activity against leaf rust of wheat (Experiment 6). The settings on record: wheat seedlings (variety Norin No 61), sprayed after inoculation at 3 ppm (30 ml/3 pots), 10 days; diseased area on the first leaf. The protocol:
Wheat seedlings (variety Norin No 61) at the first leaf stage were inoculated with the fungus, Puccinia recondita, by spraying them with a spore suspension of the fungus. They were then kept in a moist chamber for 24 hours at 20 - 22 °C, after which they were moved to a greenhouse at 15 - 20 °C. […] The seedlings were then continuously kept in the greenhouse for 10 days. The disease controlling index was given on the basis of diseased area on the first leaf.

Another test has as its system Candida albicans. The test can be described thus: ED50 in mice infected with Candida albicans, oral treatment (Experiment 11). The settings on record: treated orally. The protocol: Groups of mice (each group contained 10 mice) were inoculated with 7 to 9 x 10^6 spores per mouse of Candida albicans. 1, 4, and 24 hours after the inoculation, each mouse was orally administered 20 mg/kg of the test compound each time. The anti-fungal activity was assessed by the survival rate 9 days after infection. The survival rate was recorded as 0% 2 days after infection in an untreated (control) group. […] Following essentially the same procedure as that described in Experiment 10, mice were infected with Candida albicans, and treated orally with various compounds of the invention, as shown in the following Table 21. Fifteen days after infection (or fourteen days in the case of the compounds of Example Nos. 5 and 10), ED50 values were determined and are reported in the following Table 21.

Test [3] deals with Rhizoctonia solani. The test can be described thus: Preventive activity against sheath blight of rice plants (Experiment 2). On the set-up: key: 0 = disease as untreated, 5 = no disease (complete control). To be noted: rice seedlings (variety Nihonbare), sprayed at 100 ppm (30 ml/3 pots) 24 hours before inoculation, 5 days; height of the lesions. The protocol: Rice seedlings (variety Nihonbare) at the 4 - 5 leaf stage were sprayed with an aqueous suspension of the test compound at a concentration of 100 ppm (30 ml/3 pots). The seedlings were then kept for 24 hours at room temperature, after which they were inoculated with the fungus, Rhizoctonia solani, by placing 4 - 5 oat grains on which the fungus had previously been cultured around the base of each seedling. The seedlings were then kept in a moist chamber for 5 days at 25 - 27 °C. The disease controlling index was given on the basis of the height of the lesions formed on the rice seedlings.
Except in Table 12G, the compounds tested have the formula (1-1), in which Ar represents the group shown at the beginning of each part of the Table and R^1, R^2, X and Y are as defined in the Table.
as §1

The next test has as its system Sphaerotheca fuliginea. In words: Preventive activity against powdery mildew of cucumber (Experiment 8). The settings on record: cucumber seedlings sprayed at 300 ppm, inoculated after 24 hours, evaluated after 7 days in greenhouse; diseased area on third and fourth leaves. The protocol: Cucumber seedlings (variety Sagamihanpaku) at the 3 - 4 leaf stage were sprayed with an aqueous suspension of the test compound at a concentration of 300 ppm (30 ml/3 pots). The seedlings were then kept for 24 hours at room temperature, after which they were inoculated with conidida of Sphaerotheca fuliginea. After keeping the seedlings in a greenhouse for 7 days, the disease controlling index was evaluated on the basis of the diseased area on the third and fourth leaves.

The subject of the next test is Venturia inaequalis. The test can be described thus: Preventive activity against apple scab (Experiment 9). To be noted: apple seedlings sprayed at 300 ppm, inoculated after 24 hours, 3 days moist chamber then 10 days greenhouse; diseased area on third and fourth leaves. The protocol:
Apple seedlings at the 3 - 4 leaf stage were sprayed with an aqueous suspension of the test compound at a concentration of 300 ppm (30 ml/3 pots). The seedlings were then kept for 24 hours at room temperature, after which they were inoculated with the fungus, Venturia inaequalis, by spraying a spore suspension of the fungus over the seedlings. After inoculation, the seedlings were kept in a moist chamber for 3 days at 20 - 22 °C and then moved to a greenhouse at 20 - 22°C for 10 days. The disease controlling index was given on the basis of the diseased area on the third and fourth leaves.

In another test the test system is Gibberella Fujikuroi. The test can be described thus: Activity against bakanae disease of rice plants by seed soaking (Experiment 5). On the set-up: key: 0 = disease as untreated, 5 = no disease (complete control). To be noted: infected rice seeds (variety Tanginbozu) immersed 3 days in aqueous suspension (concentration not given), 3 weeks; number of diseased seedlings. The protocol: Ten grams of rice seeds (variety Tanginbozu), infected with Gibberella Fujikuroi, were immersed in 20 ml of an aqueous suspension of the test compound for 3 days. At the end of this time, the treated seeds were densely sown in soil in pots, and the pots were placed in a greenhouse at 20 - 30 °C for 3 weeks. The disease controlling index was given on the basis of the number of diseased seedlings.
(§2) The compounds tested have the formula (1-1), in which Ar represents the group shown at the beginning of each part of the Table and R^1, R^2, X and Y are as defined in the Table.
as §1

The subject of test [4] is Rhizoctonia solani. The test can be described thus: Curative activity against sheath blight of rice plants (Experiment 3). More on the design: key: 0 = disease as untreated, 5 = no disease (complete control). To be noted: rice seedlings (variety Nihonbare), sprayed 24 hours after inoculation at 10 ppm (30 ml/3 pots), further 5 days; height of the lesions. The method, then:
Rice seedlings (variety Nihonbare) at the 4 - 5 leaf stage were inoculated with the fungus, Rhizoctonia solani, by placing 4 - 5 oat grains on which the fungus had previously been cultured around the base of each rice seedling and keeping them in a moist chamber at 25 - 27 °C. After 24 hours, the rice seedlings were sprayed with an aqueous suspension of the test compound at a concentration of 10 ppm (30 ml/3 pots) and they then continued to be kept in the moist chamber for a further 5 days. The disease controlling index was given on the basis of the height of the lesions formed on the rice seedlings.
as §2, §1

Another test concerns Pyricularia oryzae. To be noted: rice seedlings (variety Sachikaze), sprayed 24 hours after inoculation at 10 ppm (30 ml/3 pots), further 6 days; number of lesions on the upper two leaves.
Setting [5] is: 336 h, fourteen days after infection (Example Nos. 5 and 10).
Setting [6] is: 360 h, fifteen days after infection.

`C[C@@H](NC(=O)c1ccc(Cl)cc1)[C@](O)(Cn1cncn1)c1ccc(Cl)cc1Cl` (relative stereo) [Example 5, (2R*, 3R*)-3-(4-Chlorobenzoylamino)-2-(2,4-dichlorophenyl)-1-(1H-1,2,4-triazol-1-yl)-2-butanol]: the disease controlling index is reported as 4 (disease rate is less than 10% of the untreated plant) in the test with Rhizoctonia solani [1], 5 in test [2], 5 in the test with Puccinia recondita and 5 in the test on Rhizoctonia solani [3]. The compound further returned an ED50 with Candida albicans (setting [5]) of 7.07 mg/kg. The “Index (disease controlling index)” value in the test on Sphaerotheca fuliginea and in the test with Venturia inaequalis was 5 throughout.
Turning to `C[C@@H](N(C)C(=O)c1ccc(C(F)(F)F)cc1)[C@](O)(Cn1cncn1)c1ccc(F)cc1F` (relative stereo) [Example 59, (2R^*, 3R*)-2-(2,4-Difluorophenyl)-3-{N-methyl-N-[4-(trifluoromethyl)benzoyl]amino}-1-(1H-1,2,4-triazol-1-yl)-2-butanol], the disease controlling index with Rhizoctonia solani [1] is listed as 4 (disease rate is less than 10% of the untreated plant); in the test on Gibberella Fujikuroi it was 4 (disease rate is less than 10% of the untreated plant); in the test on Rhizoctonia solani [4] it was 5; in the test with Rhizoctonia solani [3], 5. The same compound showed an ED50 in the test on Candida albicans (setting [6]) of 0.66 mg/kg. Besides, the “Index (disease controlling index)” value with Sphaerotheca fuliginea and with Venturia inaequalis was 5 each time.
Regarding `C[C@@H](SC(=O)c1ccc(C(F)(F)F)cc1)[C@](O)(Cn1cncn1)c1ccc(Cl)cc1Cl` (relative stereo) [Example 46, (2R*, 3R*)-2-(2,4-Dichlorophenyl)-1-(1H-1 ,2,4-triazol-1-yl)-3-[4-(trifluoromethyl)benzoylthio]-2-butanol], in the test on Candida albicans (setting [6]), the ED50 was 0.73 mg/kg. Besides, the “Index (disease controlling index)” value in the test with Sphaerotheca fuliginea and with Venturia inaequalis was 5 each time.
`C[C@@H](NC(=O)c1ccc(C(F)(F)F)cc1)[C@](O)(Cn1cncn1)c1ccc(F)cc1F` (relative stereo) [Example 17, (2R*, 3R*)-2-(2,4-0ifluorophenyl)-1-(1H-1,2,4-triazol-1-yl)-3-(4-trifluoromethylbenzoylamino)-2-butanol]: the disease controlling index in test [2] was 5; in the test on Puccinia recondita, 5; in the test with Gibberella Fujikuroi, 4 (disease rate is less than 10% of the untreated plant); in the test on Rhizoctonia solani [4] it was 4 (disease rate is less than 10% of the untreated plant); with Rhizoctonia solani [3], 4 (disease rate is less than 10% of the untreated plant); in the test on Pyricularia oryzae, 5. For the same compound, the 50% effect level in the test on Candida albicans (setting [6]) (ED50) was put at a dose of 0.86 mg/kg. The “Index (disease controlling index)” value with Sphaerotheca fuliginea is 4 (disease rate is less than 10% of the untreated plant).
For `C[C@@H](NC(=O)c1ccc(Cl)cc1)[C@](O)(Cn1cncn1)c1ccc(Cl)cc1Cl` [Example 10, (2R, 3R)-3-(4-Chlorobenzoylamino)-2-(2,4-dichlorophenyl)-1-(1H-1,2,4-triazol-1-yl)-2-butanol], the disease controlling index is 5 with Gibberella Fujikuroi, 5 in the test with Rhizoctonia solani [4], 5 with Rhizoctonia solani [3] and 4 (disease rate is less than 10% of the untreated plant) in the test on Pyricularia oryzae. In addition, the ED50 in the test on Candida albicans (setting [5]) is under 2.5 mg/kg. Besides, the “Index (disease controlling index)” value in the test with Sphaerotheca fuliginea and in the test with Venturia inaequalis was 5 in each case.
